The subject of assay [1] is Total ATXN3 (tATXN3) protein. Description: Endogenous Total ATXN3 (tATXN3) Protein Assay (MSD immunoassay of cell lysates). It counts as cell-based. Conditions: average IC50, total ATXN3 protein in cell lysate after 48 h with compound (Table 1). Put shortly:
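Cells in DMEM/10% FBS were plated at 10,000 per well onto 7-point, 3.16-fold compound dilutions in duplicate for 48 h at 37° C, then lysed. Total ATXN3 in lysates was measured by MSD sandwich immunoassay: mouse anti-ATXN3 capture, rabbit anti-ATXN3 detection, SULFO-TAG anti-rabbit. Average IC50 was reported in star bins.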

Another assay has as its system ATXN3 pre-mRNA. As to the kind of experiment: RT-qPCR Assay to Quantify Exon 4 Skipping in ATXN3 pre-mRNA in Cells. It counts as cell-based. Conditions: percent exon 4 skipping in ATXN3 pre-mRNA, RT-qPCR of cell lysates; average IC50. Put shortly:
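Cells plated at 10,000/well onto a 7-point, 3.16-fold DMSO dilution series (duplicates), incubated 24 h at 37 °C, then lysed. Exon 4 skipping measured by one-step RT-qPCR (48 °C RT, 40 cycles); IC50 interpolated from dose-response fit of percent skipping.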
A general note: In qPCR the cycle at which signal appears reflects the starting amount.

Where only a bound is given, the exact number is not on record here.

What is called IC50 is the concentration at which inhibition is half-maximal. Regarding `N[C@H]1CC=CC[C@@H]1c1sc2c(NCc3ccccc3)nc(Cl)nc2c1I` [Compound 229, 6-((1S,6S)-6-aminocyclohex-3-en-1-yl)-N-benzyl-2-chloro-7-iodothieno[3,2-d]pyrimidin-4-amine], the half-maximal inhibitory concentration (IC50) (in assay [1]; in the assay on ATXN3 pre-mRNA) was not above 0.03 µM throughout.

Consider `N[C@@H]1CCCCCC[C@@H]1c1sc2c(NCc3cccs3)cc(Cl)nc2c1Cl` [Compound 98, 2-((1S,2R)-2-aminocyclooctyl)-3,5-dichloro-N-(thiophen-2-ylmethyl)thieno[3,2-b]pyridin-7-amine], for which the IC50 (in assay [1]; with ATXN3 pre-mRNA) was more than 1 µM in each case.

Regarding “2-((3R,4R)-3-aminotetrahydro-2H-pyran-4-yl)-3-bromo-5-chloro-N-(thiophen-2-ylmethyl)thieno[3,2-b]pyridin-7-amine and 2-((3S,4S)-3-aminotetrahydro-2H-pyran-4-yl)-3-bromo-5-chloro-N-(thiophen-2-ylmethyl)thieno[3,2-b]pyridin-7-amine [Compound 146]”, the half-maximal inhibitory concentration (IC50) (in assay [1]; with ATXN3 pre-mRNA) was more than 1 µM throughout.

On to “2-((2R,3R)-3-aminotetrahydro-2H-pyran-2-yl)-5-chloro-N-(2-fluorobenzyl)thieno[3,2-b]pyridin-7-amine and 2-((2S,3S)-3-aminotetrahydro-2H-pyran-2-yl)-5-chloro-N-(2-fluorobenzyl)thieno[3,2-b]pyridin-7-amine [Compound 28]”, for which the IC50 (in assay [1]; with ATXN3 pre-mRNA) was more than 1 µM throughout.

As to “2-((1R,6R)-6-aminocyclohex-3-en-1-yl)-5-chloro-3-(propa-1,2-dien-1-yl)-N-(thiophen-2-ylmethyl)thieno[3,2-b]pyridin-7-amine and 2-((1S,6S)-6-aminocyclohex-3-en-1-yl)-5-chloro-3-(propa-1,2-dien-1-yl)-N-(thiophen-2-ylmethyl)thieno[3,2-b]pyridin-7-amine [Compound 324]”, the IC50 (in assay [1]; in the assay with ATXN3 pre-mRNA) was 0.03 to 0.3 µM throughout.

In the case of `N[C@@H]1CCCO[C@H]1c1sc2c(NCc3cccs3)cc(Cl)nc2c1Br` [Compound 49, 2-((2R,3R)-3-aminotetrahydro-2H-pyran-2-yl)-3-bromo-5-chloro-N-(thiophen-2-ylmethyl)thieno[3,2-b]pyridin-7-amine], the half-inhibitory concentration (IC50) (in assay [1]; in the assay on ATXN3 pre-mRNA) was more than 1 µM in each case.

For `N[C@@H]1CC=CC[C@H]1c1sc2c(NCc3ccsc3)cc(Cl)nc2c1Br` [Compound 415, 2-((1R,6R)-6-aminocyclohex-3-en-1-yl)-3-bromo-5-chloro-N-(thiophen-3-ylmethyl)thieno[3,2-b]pyridin-7-amine], the IC50 (in assay [1]; in the assay on ATXN3 pre-mRNA) was 0.3 to 1 µM throughout.

For the compound `N[C@H]1CCOC[C@@H]1c1sc2c(NCc3cccs3)cc(Cl)nc2c1Cl` [Compound 179, 2-((3R,4S)-4-aminotetrahydro-2H-pyran-3-yl)-3,5-dichloro-N-(thiophen-2-ylmethyl)thieno[3,2-b]pyridin-7-amine], the IC50 (in assay [1]; in the assay with ATXN3 pre-mRNA) was not above 0.03 µM each time.

On to `N[C@@H]1CCC[C@@H]1c1cc2nc(Cl)cc(NCc3cccs3)c2s1` [Compound 9, 2-((1S,2R)-2-aminocyclopentyl)-5-chloro-N-(thiophen-2-ylmethyl)thieno[3,2-b]pyridin-7-amine], for which the IC50 is more than 1 µM in assay [1] and 0.3 to 1 µM in the assay on ATXN3 pre-mRNA.

For the compound `CC#CCNc1cc(Cl)nc2c(I)c([C@H]3CCCC[C@@H]3N)sc12` [Compound 283, 2-((1S,2S)-2-aminocyclohexyl)-N-(but-2-yn-1-yl)-5-chloro-3-iodothieno[3,2-b]pyridin-7-amine], the half-maximal inhibitory concentration (IC50) (in assay [1]; in the assay with ATXN3 pre-mRNA) was 0.03 to 0.3 µM each time.

As for `N[C@@H]1CC=CC[C@H]1c1sc2c(NCc3cccs3)nc(Cl)nc2c1Cl.N[C@H]1CC=CC[C@@H]1c1sc2c(NCc3cccs3)nc(Cl)nc2c1Cl` (mixture of isomers) [Compound 240, 6-((1R,6R)-6-aminocyclohex-3-en-1-yl)-2,7-dichloro-N-(thiophen-2-ylmethyl)thieno[3,2-d]pyrimidin-4-amine and 6-((1S,6S)-6-aminocyclohex-3-en-1-yl)-2,7-dichloro-N-(thiophen-2-ylmethyl)thieno[3,2-d]pyrimidin-4-amine], the IC50 (in assay [1]; in the assay with ATXN3 pre-mRNA) was not above 0.03 µM in each case.

With “5-(5-chloro-2-((1R,6R)-6-(dimethylamino)cyclohex-3-en-1-yl)-7-((thiophen-2-ylmethyl)amino)thieno[3,2-b]pyridin-3-yl)pent-4-yn-1-ol and 5-(5-chloro-2-((1S,6S)-6-(dimethylamino)cyclohex-3-en-1-yl)-7-((thiophen-2-ylmethyl)amino)thieno[3,2-b]pyridin-3-yl)pent-4-yn-1-ol [Compound 454]”, the IC50 (in assay [1]; in the assay with ATXN3 pre-mRNA) was 0.3 to 1 µM throughout.

Consider `N[C@@H]1COCC[C@H]1c1sc2c(NCc3cccs3)cc(Cl)nc2c1Cl.N[C@H]1COCC[C@@H]1c1sc2c(NCc3cccs3)cc(Cl)nc2c1Cl` (mixture of isomers) [Compound 272, 2-((3R,4S)-3-aminotetrahydro-2H-pyran-4-yl)-3,5-dichloro-N-(thiophen-2-ylmethyl)thieno[3,2-b]pyridin-7-amine and 2-((3S,4R)-3-aminotetrahydro-2H-pyran-4-yl)-3,5-dichloro-N-(thiophen-2-ylmethyl)thieno[3,2-b]pyridin-7-amine], for which the concentration for half-maximal inhibition (IC50) (in assay [1]; in the assay on ATXN3 pre-mRNA) was 0.03 to 0.3 µM throughout.

In the case of `N[C@@H]1CC=CC[C@H]1c1c(I)c2nc(Cl)nc(NCc3ccccc3)c2n1C(F)F` [Compound 424, 6-((1R,6R)-6-aminocyclohex-3-en-1-yl)-N-benzyl-2-chloro-5-(difluoromethyl)-7-iodo-5H-pyrrolo[3,2-d]pyrimidin-4-amine], the results for the IC50 (in assay [1]; in the assay on ATXN3 pre-mRNA) were 0.03 to 0.3 µM and not above 0.03 µM, respectively.

Take `CN(Cc1cccs1)c1cc(Cl)nc2c(C#CCCCO)c([C@H]3CC=CC[C@@H]3N)sc12` [Compound 349, 5-(2-((1S,6S)-6-aminocyclohex-3-en-1-yl)-5-chloro-7-(methyl(thiophen-2-ylmethyl)amino)thieno[3,2-b]pyridin-3-yl)pent-4-yn-1-ol]: the half-maximal inhibitory concentration (IC50) (in assay [1]; in the assay with ATXN3 pre-mRNA) was 0.03 to 0.3 µM each time.

For `N[C@H]1CCCO[C@@H]1c1sc2c(NCc3ccccc3)cc(Cl)nc2c1Br` [Compound 108, 2-((2S,3S)-3-aminotetrahydro-2H-pyran-2-yl)-N-benzyl-3-bromo-5-chlorothieno[3,2-b]pyridin-7-amine], the IC50 (in assay [1]; in the assay with ATXN3 pre-mRNA) was not above 0.03 µM in each case.

As for `Cc1c([C@@H]2CCCCCC[C@H]2N)sc2c(NCc3cccs3)cc(Cl)nc12` [Compound 92, 2-((1R,2R)-2-aminocyclooctyl)-5-chloro-3-methyl-N-(thiophen-2-ylmethyl)thieno[3,2-b]pyridin-7-amine], the half-inhibitory concentration (IC50) (in assay [1]; in the assay with ATXN3 pre-mRNA) was more than 1 µM throughout.

For the compound `CC#CCNc1nc(Cl)nc2c(I)c([C@H]3CC=CC[C@@H]3N)sc12` [Compound 219, 6-((1S,6S)-6-aminocyclohex-3-en-1-yl)-N-(but-2-yn-1-yl)-2-chloro-7-iodothieno[3,2-d]pyrimidin-4-amine], the IC50 (in assay [1]; with ATXN3 pre-mRNA) was not above 0.03 µM in each case.

Take `N[C@H]1CCCC[C@@H]1c1c(I)c2nc(Cl)nc(NCc3ccco3)c2n1C(F)F` [Compound 304, 6-((1S,2S)-2-aminocyclohexyl)-2-chloro-5-(difluoromethyl)-N-(furan-2-ylmethyl)-7-iodo-5H-pyrrolo[3,2-d]pyrimidin-4-amine]: the IC50 (in assay [1]; with ATXN3 pre-mRNA) was 0.03 to 0.3 µM each time.

With `N[C@H]1CC=CC[C@@H]1c1sc2c(NCc3ccncc3F)nc(Cl)nc2c1Cl` [Compound 236, 6-((1S,6S)-6-aminocyclohex-3-en-1-yl)-2,7-dichloro-N-((3-fluoropyridin-4-yl)methyl)thieno[3,2-d]pyrimidin-4-amine], the IC50 (in assay [1]; with ATXN3 pre-mRNA) was not above 0.03 µM throughout.

Consider `N[C@H]1CC=CC[C@@H]1c1sc2c(NCc3ccncc3)nc(Cl)nc2c1Cl` [Compound 214, 6-((1S,6S)-6-aminocyclohex-3-en-1-yl)-2,7-dichloro-N-(pyridin-4-ylmethyl)thieno[3,2-d]pyrimidin-4-amine], for which the half-inhibitory concentration (IC50) (in assay [1]; with ATXN3 pre-mRNA) was not above 0.03 µM in each case.

Turning to `N[C@@H]1CCCO[C@H]1c1c(Cl)c2nc(Cl)nc(NCc3cccs3)c2n1C(F)F.N[C@H]1CCCO[C@@H]1c1c(Cl)c2nc(Cl)nc(NCc3cccs3)c2n1C(F)F` (mixture of isomers) [Compound 346, 6-((2S,3S)-3-aminotetrahydro-2H-pyran-2-yl)-2,7-dichloro-5-(difluoromethyl)-N-(thiophen-2-ylmethyl)-5H-pyrrolo[3,2-d]pyrimidin-4-amine and 6-((2R,3R)-3-aminotetrahydro-2H-pyran-2-yl)-2,7-dichloro-5-(difluoromethyl)-N-(thiophen-2-ylmethyl)-5H-pyrrolo[3,2-d]pyrimidin-4-amine], the IC50 (in assay [1]; in the assay with ATXN3 pre-mRNA) was 0.03 to 0.3 µM throughout.

Turning to `N[C@@H]1CC=CC[C@H]1c1sc2c(NCc3ccncc3)cc(Cl)nc2c1Br` [Compound 373, 2-((1R,6R)-6-aminocyclohex-3-en-1-yl)-3-bromo-5-chloro-N-(pyridin-4-ylmethyl)thieno[3,2-b]pyridin-7-amine], the 50% inhibitory concentration (IC50) (in assay [1]; with ATXN3 pre-mRNA) was 0.03 to 0.3 µM throughout.

`N[C@H]1CCCC(F)(F)[C@@H]1c1sc2c(NCc3ccco3)nc(Cl)nc2c1Br` [Compound 201, 6-((1R,6S)-6-amino-2,2-difluorocyclohexyl)-7-bromo-2-chloro-N-(furan-2-ylmethyl)thieno[3,2-d]pyrimidin-4-amine]: the concentration for half-maximal inhibition (IC50) (in assay [1]; in the assay with ATXN3 pre-mRNA) was not above 0.03 µM in each case.

Source of the values: patent US20250382305A1 (PTC THERAPEUTICS, INC., priority 2022, published 2025).
